pIC50: −log10 of the molar value.
Target: E3 ubiquitin-protein ligase Mdm2 (Homo sapiens, UniProt Q00987)
Assay: Inhibition of GST-tagged MDM2 binding to p53 by ELISA

E3 ubiquitin-protein ligase Mdm2, sequence (Q00987 whole entry): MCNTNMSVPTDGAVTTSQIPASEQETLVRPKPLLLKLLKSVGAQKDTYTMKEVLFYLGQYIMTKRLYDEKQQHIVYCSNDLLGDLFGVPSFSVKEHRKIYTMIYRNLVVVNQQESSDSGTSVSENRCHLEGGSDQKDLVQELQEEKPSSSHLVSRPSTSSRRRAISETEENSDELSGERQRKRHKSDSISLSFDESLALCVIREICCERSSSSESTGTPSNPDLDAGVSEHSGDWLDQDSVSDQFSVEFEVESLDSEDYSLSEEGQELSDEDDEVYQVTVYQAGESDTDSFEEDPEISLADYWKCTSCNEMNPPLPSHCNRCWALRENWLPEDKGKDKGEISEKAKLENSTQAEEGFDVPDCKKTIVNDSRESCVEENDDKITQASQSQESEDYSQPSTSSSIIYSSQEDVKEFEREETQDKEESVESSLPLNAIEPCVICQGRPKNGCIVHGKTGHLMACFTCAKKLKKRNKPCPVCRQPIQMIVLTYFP

Row | SMILES | pIC50
1 | CC1=C(C(=O)N2CCNC(=O)C2)SC2=N[C@@H](c3ccc(Cl)cc3)[C@@H](c3ccc(Cl)cc3)N21 (racemic) | 5.57
2 | CC(C)C1=C(C(=O)N2CCNC(=O)C2)SC2=NC(c3ccc(Cl)cc3)C(c3ccc(Cl)cc3)N21 (single isomer, unassigned; (+)) | 6.80
3 | CC(=O)N1CCN(C(=O)C2=C(C(C)C)N3C(=N[C@@H](c4ccc(Cl)cc4)[C@H]3c3ccc(Cl)cc3)S2)CC1 (racemic) | 6.08
4 | CC(C)C1=C(C(=O)N2CCOCC2)SC2=N[C@@H](c3ccc(Cl)cc3)[C@@H](c3ccc(Cl)cc3)N21 (racemic) | 6.47
5 | CC(C)C1=C(C(=O)N2CCN(CCO)CC2)SC2=N[C@@H](c3ccc(Cl)cc3)[C@@H](c3ccc(Cl)cc3)N21 (racemic) | 5.74
6 | CCCC1=C(C(=O)N2CCNC(=O)C2)SC2=N[C@@H](c3ccc(Cl)cc3)[C@@H](c3ccc(Cl)cc3)N21 (racemic) | 5.51
7 | CC(C)C1=C(C(=O)N2CCNC(=O)C2)SC2=NC(c3ccc(Cl)cc3)C(c3ccc(Cl)cc3)N21 (single isomer, unassigned; (-)) | 4.92
8 | CCC1=C(C(=O)N2CCNC(=O)C2)SC2=N[C@@H](c3ccc(Cl)cc3)[C@@H](c3ccc(Cl)cc3)N21 (racemic) | 5.74
9 | CC(C)C1=C(C(=O)N2CCNC(=O)C2)SC2=N[C@@H](c3ccc(Cl)cc3)[C@@H](c3ccc(Cl)cc3)N21 (racemic) | 6.59
10 | CC(C)C1=C(C(=O)N2CCN(C)CC2)SC2=N[C@@H](c3ccc(Cl)cc3)[C@@H](c3ccc(Cl)cc3)N21 (racemic) | 5.92
11 | CC(C)C1=C(C(=O)N2CCNC(=O)CC2)SC2=N[C@@H](c3ccc(Cl)cc3)[C@@H](c3ccc(Cl)cc3)N21 (racemic) | 5.96
12 | CC(C)C1=C(C(=O)N2C[C@@H](C)N[C@@H](C)C2)SC2=N[C@@H](c3ccc(Cl)cc3)[C@@H](c3ccc(Cl)cc3)N21 (racemic) | 6.85
13 | COCC1=C(C(=O)N2CCNC(=O)C2)SC2=N[C@@H](c3ccc(Cl)cc3)[C@@H](c3ccc(Cl)cc3)N21 (racemic) | 5.15
14 | CC(C)(C)C1=C(C(=O)N2CCNC(=O)C2)SC2=N[C@@H](c3ccc(Cl)cc3)[C@@H](c3ccc(Cl)cc3)N21 (racemic) | 5.52
15 | O=C1CN(C(=O)C2=C(C3CC3)N3C(=N[C@@H](c4ccc(Cl)cc4)[C@H]3c3ccc(Cl)cc3)S2)CCN1 (racemic) | 5.02
16 | CC(C)C1=C(C(=O)N2CCC(C(=O)N(C)C)CC2)SC2=N[C@@H](c3ccc(Cl)cc3)[C@@H](c3ccc(Cl)cc3)N21 (racemic) | 5.36
